Key:
Test in all cases: Eurofins kinase selectivity profile against 380 other human recombinant kinases (Table S2)
Format in all cases: biochemical
[1] = molecular target: T1, 380 human recombinant protein kinases (Homo sapiens, UniProt O14757); conditions: CHK1(h), read-out: Inhibition rate
T1 construct: purchased Eurofins (Celle Lévescault)
T1 sequence (O14757 1-476): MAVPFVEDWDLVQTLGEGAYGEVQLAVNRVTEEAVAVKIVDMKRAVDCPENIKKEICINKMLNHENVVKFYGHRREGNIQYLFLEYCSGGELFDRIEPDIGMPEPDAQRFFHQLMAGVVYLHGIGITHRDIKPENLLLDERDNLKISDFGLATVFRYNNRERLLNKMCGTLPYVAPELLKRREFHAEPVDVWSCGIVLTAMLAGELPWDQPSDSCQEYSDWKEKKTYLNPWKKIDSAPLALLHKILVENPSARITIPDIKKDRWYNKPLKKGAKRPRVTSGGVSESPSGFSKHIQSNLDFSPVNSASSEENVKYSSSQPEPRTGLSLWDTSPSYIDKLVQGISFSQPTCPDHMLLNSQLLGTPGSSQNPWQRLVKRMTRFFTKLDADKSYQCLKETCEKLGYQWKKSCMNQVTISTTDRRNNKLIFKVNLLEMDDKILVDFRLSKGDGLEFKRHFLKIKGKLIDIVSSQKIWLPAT
Procedure: (§1) Subsequently, to ascertain whether the high potency of compound 11 was specific for MK2, an additional 380 human recombinant protein kinases were screened.
(§2) To assess the impact of various compounds on MK2 kinase activity, we utilized the ADP‐Glo Assay Kit (Promega) following the manufacturer's instructions. Luminescence measurements were taken using a SpectraMax Paradigm reader. The inhibition percentage was calculated using the following formula: ((specific signalDMSO control − specific signal inhibitor)/(specific signalDMSO control)) × 100%. The IC50 values were determined employing dose–response curve fitting via Prism (Graph Pad). Additionally, Eurofins company (Celle Lévescault) conducted the analysis on compound 11’s inhibitory activity against 380 other human recombinant kinases at various concentrations.

[2] = molecular target: T2, 380 human recombinant protein kinases (Homo sapiens, UniProt O43353); conditions: RIPK2(h), read-out: Inhibition rate
T2 construct: purchased Eurofins (Celle Lévescault)
Procedure: as §1, §2

[3] = molecular target: T3, 380 human recombinant protein kinases (Homo sapiens, UniProt O94921); conditions: CDK14/cyclinY(h), read-out: Inhibition rate
T3 construct: purchased Eurofins (Celle Lévescault)
Procedure: as §1, §2

[4] = molecular target: T4, 380 human recombinant protein kinases (Homo sapiens, UniProt P16234); conditions: PDGFRα(h), read-out: Inhibition rate
T4 construct: purchased Eurofins (Celle Lévescault)
Procedure: as §1, §2

[5] = molecular target: T5, 380 human recombinant protein kinases (Homo sapiens, UniProt P21709); conditions: EphA1(h), read-out: Inhibition rate
T5 construct: purchased Eurofins (Celle Lévescault)
T5 sequence (P21709 26-976): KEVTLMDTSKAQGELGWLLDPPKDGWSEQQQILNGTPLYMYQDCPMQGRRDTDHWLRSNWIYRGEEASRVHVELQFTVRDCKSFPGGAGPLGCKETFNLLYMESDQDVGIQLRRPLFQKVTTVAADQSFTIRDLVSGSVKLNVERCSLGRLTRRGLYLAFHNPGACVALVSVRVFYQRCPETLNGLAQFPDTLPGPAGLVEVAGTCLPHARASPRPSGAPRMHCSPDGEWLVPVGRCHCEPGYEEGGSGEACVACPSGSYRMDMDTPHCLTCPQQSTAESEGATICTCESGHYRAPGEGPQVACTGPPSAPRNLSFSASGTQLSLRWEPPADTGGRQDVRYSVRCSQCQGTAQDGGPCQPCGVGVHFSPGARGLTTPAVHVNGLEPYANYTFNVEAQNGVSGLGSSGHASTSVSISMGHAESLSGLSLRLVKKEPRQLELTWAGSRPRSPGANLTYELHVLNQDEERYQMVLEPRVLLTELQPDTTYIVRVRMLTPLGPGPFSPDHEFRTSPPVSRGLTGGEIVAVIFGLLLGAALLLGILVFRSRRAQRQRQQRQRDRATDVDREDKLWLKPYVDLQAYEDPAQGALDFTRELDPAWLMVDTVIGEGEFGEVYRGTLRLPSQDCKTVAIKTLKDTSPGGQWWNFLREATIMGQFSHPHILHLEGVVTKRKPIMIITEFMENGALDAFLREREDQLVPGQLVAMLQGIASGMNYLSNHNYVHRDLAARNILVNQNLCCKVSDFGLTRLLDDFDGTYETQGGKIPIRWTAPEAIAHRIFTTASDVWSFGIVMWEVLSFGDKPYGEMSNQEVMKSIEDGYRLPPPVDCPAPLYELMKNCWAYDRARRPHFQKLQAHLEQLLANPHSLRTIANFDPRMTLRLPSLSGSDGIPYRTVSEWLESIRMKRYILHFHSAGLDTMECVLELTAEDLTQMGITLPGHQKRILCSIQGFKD
Procedure: as §1, §2

[6] = molecular target: T6, 380 human recombinant protein kinases (Homo sapiens, UniProt P31749); conditions: PKBα(h), read-out: Inhibition rate
T6 construct: purchased Eurofins (Celle Lévescault)
Procedure: as §1, §2

[7] = molecular target: T7, 380 human recombinant protein kinases (Homo sapiens, UniProt P46734); conditions: MKK3(h), read-out: Inhibition rate
T7 construct: purchased Eurofins (Celle Lévescault)
T7 sequence (P46734 1-347): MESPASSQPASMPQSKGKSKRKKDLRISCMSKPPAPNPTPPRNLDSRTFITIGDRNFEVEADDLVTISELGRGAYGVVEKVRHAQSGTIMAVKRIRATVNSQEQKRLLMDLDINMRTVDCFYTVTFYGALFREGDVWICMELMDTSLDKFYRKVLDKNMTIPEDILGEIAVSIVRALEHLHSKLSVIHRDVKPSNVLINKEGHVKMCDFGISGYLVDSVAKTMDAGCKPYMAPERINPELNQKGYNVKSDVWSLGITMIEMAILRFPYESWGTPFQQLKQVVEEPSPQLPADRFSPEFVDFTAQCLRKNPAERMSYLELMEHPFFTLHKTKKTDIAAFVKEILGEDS
Procedure: as §1, §2

[8] = molecular target: T8, 380 human recombinant protein kinases (Homo sapiens, UniProt P54764); conditions: EphA4(h), read-out: Inhibition rate
T8 construct: purchased Eurofins (Celle Lévescault)
Procedure: as §1, §2

[9] = molecular target: T9, 380 human recombinant protein kinases (Homo sapiens, UniProt Q8TDR2); conditions: CLIK1(h), read-out: Inhibition rate
T9 construct: purchased Eurofins (Celle Lévescault)
Procedure: as §1, §2

T9 sequence (Q8TDR2 whole entry): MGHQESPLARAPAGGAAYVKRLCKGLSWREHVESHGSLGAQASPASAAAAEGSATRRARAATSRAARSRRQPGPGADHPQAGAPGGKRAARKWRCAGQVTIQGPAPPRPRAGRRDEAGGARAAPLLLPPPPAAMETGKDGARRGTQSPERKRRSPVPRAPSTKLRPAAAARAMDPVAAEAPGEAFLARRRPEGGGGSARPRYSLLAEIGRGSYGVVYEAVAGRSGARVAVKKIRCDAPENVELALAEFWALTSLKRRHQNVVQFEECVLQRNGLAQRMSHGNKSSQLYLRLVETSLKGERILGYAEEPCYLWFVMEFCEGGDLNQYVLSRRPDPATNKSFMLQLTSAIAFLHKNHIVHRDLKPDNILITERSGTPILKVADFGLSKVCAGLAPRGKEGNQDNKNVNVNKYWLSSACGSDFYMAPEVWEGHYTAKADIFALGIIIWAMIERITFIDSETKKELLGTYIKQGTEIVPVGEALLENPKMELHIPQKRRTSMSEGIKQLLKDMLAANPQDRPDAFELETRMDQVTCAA
T4 sequence (P16234 24-1089): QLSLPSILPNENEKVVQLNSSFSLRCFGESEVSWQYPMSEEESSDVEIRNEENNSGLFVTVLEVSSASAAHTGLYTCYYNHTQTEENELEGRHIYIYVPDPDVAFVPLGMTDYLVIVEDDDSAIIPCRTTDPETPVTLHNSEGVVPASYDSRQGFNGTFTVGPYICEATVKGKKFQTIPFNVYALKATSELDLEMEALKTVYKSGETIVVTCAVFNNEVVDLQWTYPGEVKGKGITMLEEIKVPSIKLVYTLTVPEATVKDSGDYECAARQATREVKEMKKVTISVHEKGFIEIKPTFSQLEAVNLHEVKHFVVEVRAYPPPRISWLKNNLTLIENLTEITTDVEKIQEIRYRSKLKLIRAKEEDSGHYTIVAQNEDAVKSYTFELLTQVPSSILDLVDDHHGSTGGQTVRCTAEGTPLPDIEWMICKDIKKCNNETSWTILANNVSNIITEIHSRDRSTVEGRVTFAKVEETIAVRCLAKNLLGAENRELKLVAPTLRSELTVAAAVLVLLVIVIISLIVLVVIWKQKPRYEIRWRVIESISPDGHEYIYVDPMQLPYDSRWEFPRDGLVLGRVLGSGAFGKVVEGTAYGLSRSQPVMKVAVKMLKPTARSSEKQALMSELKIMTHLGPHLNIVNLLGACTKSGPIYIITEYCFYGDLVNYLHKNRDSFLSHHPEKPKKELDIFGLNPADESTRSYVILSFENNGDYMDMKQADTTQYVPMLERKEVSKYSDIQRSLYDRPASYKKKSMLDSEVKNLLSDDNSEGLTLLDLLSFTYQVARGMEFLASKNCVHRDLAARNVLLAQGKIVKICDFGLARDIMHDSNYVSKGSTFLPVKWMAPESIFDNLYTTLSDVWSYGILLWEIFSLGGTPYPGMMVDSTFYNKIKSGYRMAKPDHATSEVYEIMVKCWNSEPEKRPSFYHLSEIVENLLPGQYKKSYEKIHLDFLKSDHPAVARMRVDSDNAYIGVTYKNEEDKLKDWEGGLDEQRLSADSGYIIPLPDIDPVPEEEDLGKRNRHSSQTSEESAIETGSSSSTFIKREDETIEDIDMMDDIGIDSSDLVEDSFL
T2 sequence (O43353 whole entry): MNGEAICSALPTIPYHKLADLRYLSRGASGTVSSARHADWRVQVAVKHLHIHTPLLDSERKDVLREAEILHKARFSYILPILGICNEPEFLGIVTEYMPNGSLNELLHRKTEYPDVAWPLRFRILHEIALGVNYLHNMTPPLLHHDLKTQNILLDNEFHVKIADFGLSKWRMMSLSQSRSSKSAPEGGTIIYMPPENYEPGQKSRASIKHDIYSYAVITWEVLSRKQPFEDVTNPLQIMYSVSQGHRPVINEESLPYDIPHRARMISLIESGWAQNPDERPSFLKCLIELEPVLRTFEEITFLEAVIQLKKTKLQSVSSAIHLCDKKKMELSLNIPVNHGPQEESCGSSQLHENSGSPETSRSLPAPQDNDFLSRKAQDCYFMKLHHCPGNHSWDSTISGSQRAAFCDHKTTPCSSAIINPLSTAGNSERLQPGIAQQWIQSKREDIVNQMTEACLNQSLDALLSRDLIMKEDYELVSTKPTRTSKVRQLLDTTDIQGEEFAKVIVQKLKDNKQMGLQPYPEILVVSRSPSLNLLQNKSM
T6 sequence (P31749 whole entry): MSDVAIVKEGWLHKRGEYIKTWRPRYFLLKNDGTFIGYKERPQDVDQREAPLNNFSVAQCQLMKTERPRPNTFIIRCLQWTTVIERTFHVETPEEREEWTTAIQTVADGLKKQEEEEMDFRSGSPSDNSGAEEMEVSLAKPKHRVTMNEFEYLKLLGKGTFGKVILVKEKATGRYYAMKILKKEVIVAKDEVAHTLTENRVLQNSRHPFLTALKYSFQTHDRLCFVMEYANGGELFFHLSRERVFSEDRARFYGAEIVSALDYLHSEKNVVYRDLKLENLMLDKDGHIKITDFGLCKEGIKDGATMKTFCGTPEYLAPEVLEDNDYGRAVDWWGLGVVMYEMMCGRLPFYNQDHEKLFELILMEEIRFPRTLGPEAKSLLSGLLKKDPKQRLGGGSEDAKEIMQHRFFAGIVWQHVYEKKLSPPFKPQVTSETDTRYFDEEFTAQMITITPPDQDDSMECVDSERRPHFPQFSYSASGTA
T8 sequence (P54764 20-986): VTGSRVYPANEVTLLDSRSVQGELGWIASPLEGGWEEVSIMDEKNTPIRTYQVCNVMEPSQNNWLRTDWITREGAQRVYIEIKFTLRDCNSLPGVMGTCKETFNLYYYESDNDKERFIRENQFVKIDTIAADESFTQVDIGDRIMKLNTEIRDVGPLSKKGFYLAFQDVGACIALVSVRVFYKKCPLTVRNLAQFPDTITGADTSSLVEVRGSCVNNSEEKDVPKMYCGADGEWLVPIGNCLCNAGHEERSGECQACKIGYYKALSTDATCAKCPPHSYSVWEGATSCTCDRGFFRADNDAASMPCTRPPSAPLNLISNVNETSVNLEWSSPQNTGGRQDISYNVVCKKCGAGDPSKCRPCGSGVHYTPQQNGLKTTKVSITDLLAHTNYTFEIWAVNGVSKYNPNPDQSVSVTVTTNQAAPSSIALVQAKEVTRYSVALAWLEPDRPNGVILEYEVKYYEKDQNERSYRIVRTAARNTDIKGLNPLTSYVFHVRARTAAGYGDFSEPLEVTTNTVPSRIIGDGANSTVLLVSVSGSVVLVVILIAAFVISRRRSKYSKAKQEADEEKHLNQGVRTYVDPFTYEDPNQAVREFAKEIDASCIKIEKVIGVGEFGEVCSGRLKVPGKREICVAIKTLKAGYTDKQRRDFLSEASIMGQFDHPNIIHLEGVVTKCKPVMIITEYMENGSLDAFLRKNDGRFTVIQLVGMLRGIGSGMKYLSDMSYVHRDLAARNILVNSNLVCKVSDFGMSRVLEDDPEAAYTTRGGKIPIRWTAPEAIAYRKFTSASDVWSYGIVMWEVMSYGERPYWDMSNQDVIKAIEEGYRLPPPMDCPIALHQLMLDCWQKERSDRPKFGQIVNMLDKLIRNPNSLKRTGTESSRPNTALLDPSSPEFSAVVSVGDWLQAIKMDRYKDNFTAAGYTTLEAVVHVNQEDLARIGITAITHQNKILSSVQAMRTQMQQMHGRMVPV
T3 sequence (O94921 whole entry): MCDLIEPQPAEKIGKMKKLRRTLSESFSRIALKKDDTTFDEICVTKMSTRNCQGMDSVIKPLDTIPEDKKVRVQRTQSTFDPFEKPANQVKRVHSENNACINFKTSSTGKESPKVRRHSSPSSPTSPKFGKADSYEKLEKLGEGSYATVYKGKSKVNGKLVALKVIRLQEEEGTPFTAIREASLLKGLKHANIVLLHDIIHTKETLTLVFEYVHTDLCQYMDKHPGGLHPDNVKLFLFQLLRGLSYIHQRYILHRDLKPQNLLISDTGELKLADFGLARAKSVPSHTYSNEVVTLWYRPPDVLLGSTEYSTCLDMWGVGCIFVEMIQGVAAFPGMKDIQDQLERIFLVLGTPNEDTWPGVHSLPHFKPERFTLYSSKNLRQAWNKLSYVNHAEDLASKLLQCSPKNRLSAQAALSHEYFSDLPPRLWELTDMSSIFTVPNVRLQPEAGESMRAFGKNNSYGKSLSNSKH

C=CC(=O)Nc1cc(-c2cc(-c3cc4c([nH]3)CCNC4=O)ccn2)ccc1OC(F)(F)F [compound 11]
inhibition at 0.01 µM ([1]; 10 nM): 10%
inhibition at 0.1 µM ([1]; 100 nM): 6%
inhibition at 1 µM ([1]; 1000 nM): 6%
inhibition at 0.01 µM ([2]; 10 nM): 11%
inhibition at 0.1 µM ([2]; 100 nM): 46%
inhibition at 1 µM ([2]; 1000 nM): 88%
inhibition at 0.01 µM ([3]; 10 nM): -2%
inhibition at 0.1 µM ([3]; 100 nM): 7%
inhibition at 1 µM ([3]; 1000 nM): 4%
inhibition at 0.01 µM ([4]; 10 nM): -5%
inhibition at 0.1 µM ([4]; 100 nM): -3%
inhibition at 1 µM ([4]; 1000 nM): -2%
inhibition at 0.01 µM ([5]; 10 nM): -2%
inhibition at 0.1 µM ([5]; 100 nM): -5%
inhibition at 1 µM ([5]; 1000 nM): -2%
inhibition at 0.01 µM ([6]; 10 nM): 2%
inhibition at 0.1 µM ([6]; 100 nM): 4%
inhibition at 1 µM ([6]; 1000 nM): 14%
inhibition at 0.01 µM ([7]; 10 nM): 6%
inhibition at 0.1 µM ([7]; 100 nM): -2%
inhibition at 1 µM ([7]; 1000 nM): -1%
inhibition at 0.01 µM ([8]; 10 nM): -1%
inhibition at 0.1 µM ([8]; 100 nM): 3%
inhibition at 1 µM ([8]; 1000 nM): -7%
inhibition at 0.01 µM ([9]; 10 nM): 5%
inhibition at 0.1 µM ([9]; 100 nM): 33%
inhibition at 1 µM ([9]; 1000 nM): 65%

From publication PMC11233931, “Remodeling tumor‐associated macrophage for anti‐cancer effects by rational design of irreversible inhibition of mitogen‐activated protein kinase‐activated protein kinase 2” (MedComm, 2024)
